# Key:
# [1] = Oral bioavailability studies in dogs (AUC after oral vs. intravenous dose); design: species or system dog (beagle dogs, mixed sexes); conditions: dog, in vivo, 5 mg/kg
# Description: Each dog received a single solid dosage form corresponding to a 5 mg/kg dose of the drug.
# HIV-1 protease = HIV-1 protease (HIV-1 M:B_HXB2R, UniProt P04585); type: biochemical
# HIV-2 protease = test: Inhibition of HIV-2 protease; type: biochemical
bioavailability [1],SMILES,inhibition of HIV-1 protease (HIV-1 protease),inhibition of HIV-2 protease (HIV-2 protease)
< 2%,"CC(C)c1nc(CN(C)C(=O)N[C@H](C(=O)N[C@@H](Cc2ccccc2)C[C@H](O)[C@H](Cc2ccccc2)NC(=O)OCc2cncs2)C(C)C)cs1 [compound III, (2S,3S,5S)-5-(N-(N-((N-Methyl-N-((2-isopropyl-4-thiazolyl)methyl)-amino)carbonyl)valinyl)amino)-2-(N-((5-thiazolyl)methoxycarbonyl)amino)-1,6-diphenyl-3-hydroxyhexane]",–,–
–,CC(C)c1nc(CN(C)C(=O)NC(C(=O)NC(Cc2ccccc2)CC(O)C(Cc2ccccc2)NC(=O)OCc2cncs2)C(C)C)cs1 (stereo not drawn) [formula II],especially effective,especially effective

# — patent US5948436A, “Pharmaceutical composition” (Abbott Laboratories, priority 1995, dated 1999)
